Data set [1] is described as follows: In-vivo pharmacokinetics, brain levels after oral administration. As to conditions: mice. How it is done: Following oral administration of compound, mice brain tissue and plasma were collected after euthanasia and perfusion at 1, 2, 4, 6 and 8 h. All animals will be euthanized by ketamine/xylazine injection to allow cardiac puncture and saline perfusion, which is consistent with recommendations of the AVMA Panel on Euthanasia. Brain tissue were homogenized in a bead beater using 5 volumes of ice-cold 80% acetonitrile (1/5; mg of brain/µL of 80% ACN). Plasma analytes were extracted using 4 volumes of ice-cold acetonitrile (1/4; µL of plasma/µL of ACN). Solutions were clarified by centrifugation (16,000 x g, 5 min) and the supernatants were transferred to new tubes and lyophilized. Samples were reconstituted in 100 µL of 50/50/0.1 (Water/Acetonitrile/Formic Acid) prior to analysis via liquid chromatography-tandem mass spectrometry (LC-MS/MS). An internal standard (IS) was added to every sample to account for compound loss during sample processing. Standards were made in drug naïve plasma and brain lysates with increasing amounts of analyte (S1,S2: 0 pmol/ S3,S4: 1 pmol/ S5,S6: 10 pmol/ S7,S8: 100 pmol, S9,S10: 1000 pmol). The standard curve was made by plotting the known amount of analyte per standard vs. the ratio of measured chromatographic peak areas corresponding to the analyte over that of the IS (analyte/IS). The trendline equation was then used to calculate the absolute concentrations of each compound in plasma and brain tissue.
Analysis of compound levels was done at the UCLA Pasarow Mass Spectrometry Lab (PMSL; Julian Whitelegge, Ph.D., Director). A targeted LC-MS/MS assay was developed for each compound using the multiple reaction monitoring (MRM) acquisition method on a 6460 triple quadrupole mass spectrometer (Agilent Technologies) coupled to a 1290 Infinity HPLC system (Agilent Technologies) with a Phenomenex analytical column (Kinetex 1.7 µm C18 100 Å 100 ×2.1 mm). The HPLC method utilized a mixture of solvent A ([…]) and solvent B ([…]) and a gradient was use for the elution of the compounds (min/%B: 0/1, 3/1, 19/99, 20/1, 30/1). Two fragment ions originating from each compound were monitored at specific LC retention times to ensure specificity and accurate quantification in the complex biological samples. The normalized chromatographic peak areas were determined by taking the ratio of measured chromatographic peak areas corresponding to each compound over that of the internal standard (Analyte/IS).

The next data set is described as follows: Kinetic solubility. In kind it is physicochemical. As to conditions: aqueous buffer, kinetic from dmso stock, PBS pH 7.4, 37 °C, 100 µM nominal. How it is done:
Test compound (10 mM, 100% DMSO) was diluted separately into aqueous buffer (100 µM; PBS pH 7.4) and DMSO at various concentrations (1000, 100, 10, 1, 0.1 µM). The solutions were then incubated at 37 °C for 90 min and centrifuged (16000xg, 5 min). An aliquot of each supernatant was analyzed by UV/Vis (if possible) or LC-MS/MS. A standard curve was made by plotting the known amount of analyte per standard in DMSO vs. absorbance or chromatographic peak area. Kinetic solubility (mM) was calculated using the trendline equation with maximum absorbance or chromatographic peak area observed in the aqueous sample.

Another data set concerns the target BRD4 (Homo sapiens, UniProt O60885). In words: BRD4 inhibition assay. The format is biochemical.
Data set [2] can be described thus: Brain tissue binding assay (dialysis). The format is in vitro ADME. The procedure:
Brain tissue was homogenized in PBS (pH 7.4) (1: 3 weight(mg)/volume(µL)) and the protein concentration was determined using the Micro BCA™ Protein Assay Kit (Thermo Fisher Scientific, Cat#23235). Brain homogenate was clarified and diluted to 20 mg/mL in PBS (pH 7.4). Either brain homogenate or plasma was and added to Slide-A-Lyzer™ MINI Dialysis Devices, 10 K MWCO dialysis cups (Thermo Fisher Scientific, Cat#PI88401) in a 48-well plate containing PBS (500 µL; pH 7.4). 1 µL of 1 mM compound was added to the brain homogenate (Final Concentration: 2 µM compound, 0.5% DMSO) and incubated on a rocker for 4.5 hours at 37 °C. 50 µL of brain homogenate or plasma (within the dialysis cup) and PBS (within the 48-well plate) were transferred to new microcentrifuge tubes containing 400 µL of quenching reagent (100% Acetonitrile) containing internal standard. Solutions were clarified by centrifugation (16,000 x g, 5 min), and the supernatants were transferred to new tubes and lyophilized. Samples were reconstituted in 100 µL of 50/50/0.1 (Water/Acetonitrile/Formic Acid) prior to analysis via liquid chromatography-tandem mass spectrometry (LC-MS/MS). The % of the unbound drug (fu,bound) was calculated using the following equation:
% Bound = [1− (PBS chromatographic peak area/ brain homogenate or plasma chromatographic peak area)] x 100

The nature of data set [3]: Liver microsome stability assay. The format is in vitro ADME. As to conditions: pH 7.4; human liver microsomes 0.5 mg/mL, NADPH, 37 °C, up to 120 min; read-out: Microsomal Stability t1/2. How it is done: An aliquot (1 µL) of test compound (1 mM, 100% DMSO) was added to an aqueous liver microsome solution (1000 µL, PBS pH 7.4, 0.5 mg/mL human liver microsomes (Thermo Fisher Scientific, Cat#HMMPL), 2 mM NADPH, 2 mM MgCl2) and incubated at 37 °C for 120 min. Aliquots (50 µL) of the microsome solution were taken at various time points (0, 5, 10, 15, 30, 60, 90, 120 min) and added to a reaction quenching solution (200 µL 100% Acetonitrile) containing an internal standard. Solutions were clarified by centrifugation (16,000 x g, 5 min), and the supernatants were transferred to new tubes and lyophilized. Samples were reconstituted in 100 µL of 50/50/0.1 (Water/Acetonitrile/Formic Acid) prior to analysis via liquid chromatography-tandem mass spectrometry (LC-MS/MS). Chromatographic peak areas normalized to the internal standard were plotted at each time point and the half-life (t1/2) of compound in liver microsomes was determined by using the trendline equation to calculate the time at which compound abundance was 50% of that at time point 0 (t0).

[4] abbreviates: brain homogenate 20 mg/mL, 2 µM compound, dialysis 4.5 hours, 37 °C.

Structures are written as SMILES. Converted amounts (≈) assume the structure as drawn. Read-outs that look alike come from different tables or passages of the source.

What is called solubility (kinetic) is the concentration staying in solution when a stock, usually in DMSO, is diluted into the medium. What is called IC50 is the concentration that gives 50% inhibition. High values mean lower potency, low ones higher potency.

As for `Cc1sc2c(c1C)C(c1ccc(Cl)cc1)=N[C@@H](CC(=O)OC1COC1)c1nnc(C)n1-2` [DDL-356], in data set [1] (oral 3, 10 or 30 mg/kg (Fig. S6)), the “unbound brain concentration versus sCLU EC50” value was “reaches higher concentrations of unbound drug in the brain above its sCLU EC50 at lower doses”. Besides, the kinetic solubility at 90 min in “Kinetic solubility” was > 100 µM. On BRD4, this compound returned an IC50 of 23 nM. For the same compound, the “Brain Tissue Binding” value in data set [2] (setting [4]) is 57 % bound. Moreover, the half-life at 1 µM in data set [3] stood at 1.25 h.
As to `Cc1sc2c(c1C)C(c1ccc(Cl)cc1)=N[C@@H](CC(=O)OC1CC1)c1nnc(C)n1-2` [DDL-357], the “unbound brain concentration versus sCLU EC50” value in data set [1] (oral 3 mg/kg, one hour post administration) is “below the sCLU EC50”; in data set [1] (oral 10 mg/kg, one hour post administration) it was “below the sCLU EC50”. Moreover, in data set [1] (oral 30 mg/kg, one hour after administration), the “maximum brain concentration (total)” value was found to be 1850 nM. Moreover, the concentration at 1 h in data set [1] (mouse, oral 30 mg/kg, 1 h, from total brain level and brain tissue binding 75.3%, read-out: unbound brain concentration) came to 457 nM. The compound also gave a kinetic solubility at 90 min in “Kinetic solubility” of 80 µM (≈ 35.3 µg/mL). The compound also came in with an IC50 against BRD4 of 20 nM. For the same compound, the Brain Tissue Binding worked out at 75.3% in data set [2] and 75 % bound in data set [2] (setting [4]). Moreover, in data set [3], the half-life at 1 µM is 1.02 h.
